Columns and labels:
[1] = system: patients with treatment-resistant major depression (TRD); assay: Planned randomized placebo-controlled double-blind trial of lithium + ketamine in TRD; assay type: in vivo, human
Text: A single-site early phase study will enroll patients with treatment-resistant major depression (TRD) in a randomized, placebo (PLC)-controlled, double blind clinical trial of lithium (Li)+ketamine (KET). The study will efficiently test the efficacy of Li compared to PLC in continuing the antidepressant response to KET. The study occurs in several phases. During a Screening phase participants undergo informed consent followed by a thorough medical and psychiatric evaluation. Eligible participants who meet all study inclusion/exclusion criteria receive a single Test KET(ketamine) Infusion to determine antidepressant response status. Non-responders [defined as <50% improvement in depression severity as measured by the Montgomery-Asberg Depression Rating Scale (MADRS) 24 hours following the infusion] are exited from the study and provided with standard of care. KET responders (2:50% improvement in MADRS) proceed to the Li/PLC treatment phase in which participants receive up to 1200 mg/day of Li or matching PLC under double blind conditions. Participants proceed to a 4-week Continuation Phase while remaining on their treatment assignment (Li/PLC) during which time depressive symptoms are monitored twice weekly. The primary outcome is depression severity as measured by the MADRS in the Li compared to PLC group at the 2-week point during the Continuation Phase. […]

depressive symptoms = details: cited from earlier work
[2] = system: patients with treatment-resistant depression (TRD); details: cited from earlier work
[3] = system: patients with treatment-resistant major depression; details: cited from earlier work
[4] = system: patients with treatment-resistant major depression; details: cited from earlier work; remark: listed apart in the source
[5] = system: patients with BPD, TRD, MDD and PTSD; details: cited from earlier work
PTSD symptom severity = details: assessed 24 hours after infusion; cited from earlier work
PTSD patients = details: three clusters: re-experiencing, avoidance and numbing, hyperarousal; cited from earlier work

O=C([O-])[O-].[Li+].[Li+] [lithium, lithium carbonate]
anticipated maintenance of the ketamine anti-depressant effect ([1]; ketamine responders receiving lithium, after last dose of ketamine): at least two or three months
expected duration of therapeutic effect of lithium following a response to ketamine ([1]; lithium carbonate 300-1800 mg daily): at least 3 months

Nc1nc2ccc(OC(F)(F)F)cc2s1 [riluzole]
relapse prevention following ketamine compared to placebo (depressive symptoms; 4-week study): no benefit of riluzole beyond placebo
relapse prevention following ketamine compared to placebo ([2]; TRD): not superior to placebo

CNC1(c2ccccc2Cl)CCCCC1=O (centres unmarked) [ketamine]
improvement in MADRS score compared to midazolam group ([3]; 24 hours after single IV infusion 0.5 mg/kg, P<0.001): significantly greater improvement
duration of efficacy following a ketamine infusion ([3]; no longer separated from placebo at 7-day time point): 1 week
duration of dissociative or psychotomimetic effects ([3]; no patient beyond this time): ≤ 2 h
safety and tolerability ([3]; single IV infusion 0.5 mg/kg): very safe and well tolerated
cumulative probability of relapse (depressive symptoms; 4-week assessment period after ketamine): 73%
cumulative risk of relapse ([4]; 3-month observation period, free of concomitant medication): 70%
time to rapid improvement in depressive symptoms ([4]; after first ketamine infusion): ≤ 24 h
median time to relapse ([4]; following sixth and final ketamine infusion): 18 days
overall response rate ([4]; repeated infusions over 2 weeks): 70.8%
onset of antidepressant effects ([5]; as early as, following single intravenous administration): 40 min
duration of antidepressant efficacy ([5]; following a single administration): a few days to approximately a week or two
reduction in PTSD symptom severity compared with midazolam (PTSD symptom severity): significant and rapid reduction
cumulative risk of relapse ([2]; 4-week observation period after ketamine): 62%
response rate (reduction of 50% or more on MADRS) ([2]; 26 TRD patients, single open-label IV infusion 0.5 mg/kg): 65%

CN[C@H]1CC[C@@H](c2ccc(Cl)c(Cl)c2)c2ccccc21 [sertraline]
efficacy in PTSD (PTSD patients): modest effect sizes and limited efficacy

Fc1ccc([C@@H]2CCNC[C@H]2COc2ccc3c(c2)OCO3)cc1 [paroxetine]
efficacy in PTSD (PTSD patients): modest effect sizes and limited efficacy

— patent publication US20180015054A1, “Method of Maintaining the Anti-Depressant Effect of Ketamine With Lithium” (Icahn School of Medicine at Mount Sinai, priority 2014, published 2018)
